According to patent publication US20040053355A1, “Modular approach to on-line synthesis, drug discovery and biochemical transformations using immobilized enzyme reactors” (priority 2000, published 2004):
Counter-ions that a name gives are not always drawn. Like-named read-outs stand apart in the source and are kept apart here. Values belong to the molecule of their own block, whether it stands above or below them.

Key:
[1] = target: T1, PNMT-Glut-P stationary phase (PNMT-SP) (Bos taurus, UniProt P10938); conditions: Table 7, *Data obtained from reference 14; cited from earlier work
T1 sequence (P10938 1-283): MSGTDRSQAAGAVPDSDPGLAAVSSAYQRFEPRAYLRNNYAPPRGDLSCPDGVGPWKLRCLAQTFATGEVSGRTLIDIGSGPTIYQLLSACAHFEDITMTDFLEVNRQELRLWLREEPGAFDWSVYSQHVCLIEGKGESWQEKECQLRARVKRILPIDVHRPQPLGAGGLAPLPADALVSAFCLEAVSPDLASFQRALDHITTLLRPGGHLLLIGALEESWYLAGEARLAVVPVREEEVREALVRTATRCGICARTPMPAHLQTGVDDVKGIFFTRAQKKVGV

[2] = target: T1, PNMT-Glut-P stationary phase (PNMT-SP); test: PNMT immobilized on Glut-P stationary phase (PNMT-SP), batch assay; assay type: biochemical, bovine
Procedure: (§1) The activity of phenylethanolamine N-methyltransferase was assayed as follows: [final concentration] To 500 μL of enzyme solution [163 μg] was added 50 μL S-adenosyl-L-methionine [20 μM] and the solution was vortexed for 1 min. The reaction was started by addition of the 50 μL substrate [1 mM]. The reaction medium was incubated for 10 min at 37° C. in a shaking bath. The resulting solution was centrifuged at 3000×g and the supernatant were directly injected onto the HPLC under the above mentioned conditions.
Immobilization onto the Glut-P Liquid Chromatographic stationary phase was accomplished in the following manner: (1) the stationary phase (10-100 mg) was washed three times with 0.1 M sodium phosphate buffer adjusted to pH 8.30 with 5M NaOH. The washing was carried out by adding 1 ml of buffer to the stationary phase, the suspension was mixed for 1 min, centrifuged at 3000×g for 10 min, and the supernatant decanted. (2) The enzyme solution [98 μg in 0.6 ml sodium phosphate buffer (0.1M, pH 8.30)] was added to the packing material, the mixture was mixed gently for 5 min and then placed in a rotator/stirrer bath for 18 h at ambient temperature. (3) At the end of 18 h, the suspension was centrifuged, the supernatant decanted and the packing material was washed three additional times with buffer. (4) The amount of enzyme immobilized on the packing material was determined by measuring the amount of residual enzyme in the supernatant using the BioRad Protein Assay. The difference in the absorbance reading before immobilization and the combined absorbances of the washings after immobilization determined the amount of enzyme bound on the packing material.

[3] = target: T2, phenylethanolamine N-methyltransferase (PNMT), non-immobilized (Bos taurus, UniProt P10938); test: Non-immobilized PNMT activity assay, batch incubation with HPLC-fluorescence analysis; assay type: biochemical, bovine
T2 sequence (P10938 1-283): T1 sequence (P10938 1-283)
Procedure: A mobile phase consisting of potassium phosphate buffer (50 mM) adjusted to pH 2.0 with trifluoroacetic acid was utilized to achieve the desired chromatographic separation of the products from the substrates. The solutes were quantitated using fluorescence detection with excitation at λ=266 nm and emission at λ=380 nm. A flow rate of 0.7 ml/min and ambient temperature were used throughout the study.
as §1

[4] = target: T3, PNMT-IMER (immobilized phenylethanolamine N-methyltransferase) (Bos taurus, UniProt P10938); test: On-line PNMT immobilized enzyme reactor (PNMT-IMER) HPLC system; assay type: biochemical, bovine; conditions: for IC50: n = 2, read-out: IC 50 PNMT-IMER
T3 sequence (P10938 1-283): T1 sequence (P10938 1-283)
Source text: PNMT immobilized on the Glut-P stationary phase was packed into a lcm×10 mm guard (Regis Technologies). The guard was put into a holder and the column was placed onto the chromatographic system. The PNMT-IMER was washed with phosphate buffer [0.1M, pH 8.3]. The eluent was collected in order to determine if any of the enzyme was being washed off the column. The Biorad assay was utilized to measure the amount of non-immobilized enzyme. When the column was not in use it was washed with phosphate buffer [0.1M, pH 8.3] and stored at 4° C.
The pump on system 2 is stopped. 100 μl of a substrate/cofactor mixture is loaded into the injector (i) and the value is switched to the inject position at the same time the switching valve (SV) is switched such that the substrate/product are eluted from the PNMT-IMER and concentrated onto the analytical columns of System 2 for the specified contact time. When the specific contact time elapses the SV is switched back to the original position and the pump on system 2 is started. The unreacted substrate and product formed are separated on the coupled analytical columns.
The enzymatic activity on the PNMT-IMER was determined by quantification of the amount of product formed with a given substrate. The temperature of the PNMT-IMER unless otherwise stated was kept at 37° C. with a column heater. Stock solutions of normetanephrine were prepared in water. The substrate concentrations examined ranged from 0.15-10 mM and that of the cofactor, S-adenosyl-L-methionine, ranged from 5-100 μM.
Enzymatic activity was examined carrying out injections of a series of substrate/cofactor mixtures. The mixtures were injected onto the IMER at a flow rate of 0.2 ml/min for a contact time of 20 min. The kinetic parameters were determined by drawing Lineweaver-Burke plots utilizing Microsoft Excel. Results are expressed as mean±standard error of the mean (SEM).
The effect of known inhibitors, S-adenosylhomocysteine and methyldopa on the enzymatic activity of the PNMT-IMER was also examined. The inhibition of the PNMT-IMER was carried out using injections of a series of substrate/cofactor/inhibitor mixtures.

[5] = non-immobilized PNMT, read-out: Ki PNMT
[6] = immobilized PNMT, read-out: Ki PNMT-SP
[7] = 0.2 ml/min, contact time 20 min, 37° C., n = 2

Molecule: COc1cc(C(O)CN)ccc1O (racemic) [Normetanephrine, DL-normetanephrine hydrochloride]
Km [1]: 152 µM
Vmax [1]: 0.823 µmol/mg/min
Vmax ([2]; PNMT-SP, Table 5): 0.823 µmol/mg/min

Molecule: Cl.NCc1ccccc1 [Benzylamine, benzylamine hydrochloride]
concentration as low as which the enzyme is inhibited ([3]; non-immobilized PNMT): 100 µM
Ki [3, 5]: 220 ± 110 µM
inhibition of PNMT activity, immobilized PNMT compared to the non-immobilized PNMT ([2]; FIG. 8): three times higher
concentration as low as which the enzyme is inhibited ([2]; immobilized PNMT): 100 µM
Ki [2, 6]: 690 ± 100 µM

Molecule: CCN1C(=O)C=CC1=O [N-ethylmaleimide]
Ki [3, 5]: 1.04 ± 0.49 µM
Ki [2, 6]: 4.92 ± 0.16 µM

Molecule: O=S(=O)(O)c1cc[c]([Hg][Cl])cc1 [p-chloromercuriphenylsulfonic acid, p-chloromercuriphenylsulfonic acid monosodium salt]
Ki [3]: 120 ± 140 µM
Ki [2]: 520 ± 190 µM

Molecule: methyl-dopa
concentration as low as which the PNMT-IMER is inhibited [4]: 1 µM
IC50 [4]: 7.6 ± 0.2 µM
IC50 ([3]; non-immobilized PNMT, n = 2, read-out: IC 50 PNMT): 10.4 µM

Continued, in another order:

concentration as low as which the PNMT-IMER is inhibited [4]: 5 µM
IC50 [4]: 50.5 ± 1.5 µM
IC50 [3]: 40.1 µM
Molecule: Nc1ncnc2c1ncn2[C@@H]1O[C@H](CSCC[C@H](N)C(=O)O)[C@@H](O)[C@H]1O [SAH, S-adenosyl-L-homocysteine]

Km [4, 7]: 7.31 µM
Vmax [4, 7]: 0.424 µmol/mg/min
Km ([3]; non-immobilized PNMT): 14.2 µM
Vmax ([3]; non-immobilized PNMT): 1.249 µmol/mg/min
Km ([2]; PNMT-SP, Table 5): 10.6 µM
Vmax ([2]; PNMT-SP, Table 5): 0.654 µmol/mg/min
Molecule: C[S+](CC[C@H](N)C(=O)O)C[C@H]1O[C@@H](n2cnc3c(N)ncnc32)[C@H](O)[C@@H]1O (stereo partly drawn) [SAM, S-adenosyl-L-methionine]
Km [1]: 10.6 µM
Vmax [1]: 0.254 µmol/mg/min
